Measured values published in patent US11786606B2, “Site-specific quantitation of drug conjugations” (Regeneron Pharmaceuticals, Inc., priority 2019, dated 2023).

Biological target: T1, papain (Carica papaya, UniProt P00784)
T1 sequence (P00784 134-345): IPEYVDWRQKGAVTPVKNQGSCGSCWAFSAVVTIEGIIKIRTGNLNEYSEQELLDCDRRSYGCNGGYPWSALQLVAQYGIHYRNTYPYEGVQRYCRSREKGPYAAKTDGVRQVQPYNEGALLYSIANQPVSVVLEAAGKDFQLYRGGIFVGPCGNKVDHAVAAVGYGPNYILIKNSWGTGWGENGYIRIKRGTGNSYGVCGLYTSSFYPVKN
Experiment: Papain digestion to remove drug payloads from ADC linkers, monitored by LC-MS peak areas of surrogate peptides
Assay type: biochemical
Conditions: papain to substrate ratio 1:200; peak areas of peptides containing cleaved linker
Method: According to the concentration of ADC samples, transfer 25 μg of each ADC sample to a new microcentrifuge tube and add water to a total volume of 10 μL. Dilute 20 uL of papain suspension (10 mg/mL) with 180 uL of papain digestion buffer, incubate at 37° C. for 30 min. Dilute 30 uL of papain (nominal concentration of 1 mg/mL) with 120 uL of activation buffer to a nominal concentration of 0.2 mg/mL. Measure papain concentration with UV (ultra-violate) measurement at 280 nm and 320 nm using papain activation buffer as the blank buffer. Dilute activated papain to a final concentration of 0.1 mg/mL with papain activation buffer. Add 1.25 uL of 0.1 mg/mL papain solution (enzyme:substrate ratio is 1:200) to intact ADC, incubate at 37° C. for 1 h. Add 0.5 μL of 0.1 M TCEP-HCl to each sample. Vortex the samples for 3 seconds, and then spin down the samples using a Minicentrifuge for 3 seconds. Incubate samples at 95° C. for 20 minutes with shaking at 800 rpm in a thermomixer. Following incubation, cool down the samples to room temperature for 5 minutes. Spin down the condensation using a Minicentrifuge for 3 seconds. Add 6 μL of 8 M urea in 1 M Tris-HCl, pH 7.5 to each sample. […]
Papain was used to remove the payloads of MAB1-LK1 ADCs. […] Two tryptic peptides, e.g., SCDK (serine-cysteine-aspartic acid-lysine) (SEQ ID NO: 7) and GEC (glycine-glutamic acid-cysteine), were analyzed using LC-MS. […]

| Substance | incubation time for completion of papain digestion to remove drug payloads (cleaved linker monitored) |
| --- | --- |
| mal-amido-PEG8-VA-PABA [LK1] | one |
| mal-amido-Val-Cit-PABA [LK3] | one |
